Source: PMC10819243 (Pharmaceutics, 2024)
Where two headings read alike, the source gives them in different places.

How the values were obtained:
[1] = test system: KB; conditions: most active derivatives published earlier; read-out: Cell Line, IC50 [ μM] KB; cited from earlier work
[2] = test system: MCF-7; conditions: most active derivatives published earlier; read-out: Cell Line, IC50 [ μM] MCF-7; cited from earlier work
[3] = test system: HeLa; conditions: most active derivatives published earlier; read-out: Cell Line, IC50 [ μM] HeLa; cited from earlier work
[4] = test system: MCF-7; experiment: MTT assay, MCF-7; format: cell-based; conditions: for IC50: Homo sapiens, MCF7, MTT assay, MCF-7 breast carcinoma, (±s) standard deviation; for Selectivity Index MCF-7: IC50 for normal cell line (HDF)/IC50 for MCF-7
[5] = test system: KB; experiment: MTT assay, KB; format: cell-based; conditions: for IC50: Homo sapiens, MTT assay, KB nasopharynx carcinoma, (±s) standard deviation; for Selectivity Index KB: IC50 for normal cell line (HDF)/IC50 for KB
[6] = test system: A-549; experiment: MTT assay, A-549; format: cell-based; conditions: for IC50: Homo sapiens, A549, MTT assay, A-549 lung carcinoma, (±s) standard deviation; for Selectivity Index A-549: IC50 for normal cell line (HDF)/IC50 for A-549
[7] = test system: HeLa; experiment: MTT assay, HeLa; format: cell-based; conditions: for IC50: Homo sapiens, MTT assay, HeLa cervix carcinoma, (±s) standard deviation; for Selectivity Index HeLa: IC50 for normal cell line (HDF)/IC50 for HeLa
[8] = test system: HDF (normal fibroblast cell line); experiment: MTT assay, HDF; format: cell-based, human; conditions: for IC50: Homo sapiens, Fibroblast, MTT assay, HDF normal fibroblast cell line, (±s) standard deviation
[9] = test system: HeLa, KB, MCF-7, A-549 and HDF cell lines; experiment: MTT assay, statements over several tested cell lines; format: cell-based; conditions: summary over the tested cell lines; for IC50: read-out: IC50 values for the tested cell lines (range or summary)
[10] = test system: U-87MG cells; experiment: Apoptosis assay (DNA fragmentation), U-87MG; format: cell-based
Text: (§1) The necrosis process induced by all the tested compounds was very small.

[11] = test system: U-87MG, MCF-7, and HeLa cancer cell lines; experiment: Apoptosis assay, all cancer cell lines; format: cell-based
Text: as §1

[12] = ratio of IC50 values vs oleanolic acid (1)

| Structure (SMILES) | IC50 [1] | IC50 [2] | IC50 [3] | IC50 [4] | Selectivity Index MCF-7 [4] | IC50 [5] | Selectivity Index KB [5] | IC50 [6] | Selectivity Index A-549 [6] | IC50 [7] | Selectivity Index HeLa [7] | IC50 [8] | IC50 [9] | further results |
| --- | --- | --- | --- | --- | --- | --- | --- | --- | --- | --- | --- | --- | --- | --- |
| COC(=O)C12CCC(C)(C)CC1C1C(=NOC(=O)CCl)CC3C4(C)CCC(OC(C)=O)C(C)(C)C4CCC3(C)C1(C)CC2 (centres unmarked) [8b [22]] | 9.42 µM | 7.26 µM | 9.19 µM |  |  |  |  |  |  |  |  |  |  |  |
| COC(=O)C12CCC(C)(C)CC1C1C(=NOC(=O)CBr)CC3C4(C)CCC(OC(C)=O)C(C)(C)C4CCC3(C)C1(C)CC2 (centres unmarked) [8c [22]] | 4.9 µM | 3.76 µM | 4.41 µM |  |  |  |  |  |  |  |  |  |  |  |
| CCC(=O)ON=C1C[C@@H]2[C@@]3(C)CC[C@H](OC(C)=O)C(C)(C)[C@@H]3CC[C@@]2(C)[C@]2(C)CC[C@@]3(C(=O)OC)CCC(C)(C)C[C@H]3[C@@H]12 [8d [22]] | 0.72 µM | 2.13 µM | 1.87 µM |  |  |  |  |  |  |  |  |  |  |  |
| COC(=O)C12CCC(C)(C)CC1C1C(=NOC(=O)c3ccccc3[N+](=O)[O-])CC3C4(C)CCC(OC(C)=O)C(C)(C)C4CCC3(C)C1(C)CC2 (centres unmarked) [8e [22]] | > 10 µM | 9.28 µM | 9.84 µM |  |  |  |  |  |  |  |  |  |  |  |
| COC(=O)C12CCC(C)(C)CC1C1=CC(=O)C3C4(C)CCC(=NO)C(C)(C)C4CCC3(C)C1(C)CC2 (centres unmarked) [Compound 3] | 6.19 µM | > 10 µM | 5.03 µM | 48.4 µM | 1.26 | 60.3 µM | 1.01 | 63 µM | 0.97 | 125 µM | 0.49 | 61 µM |  |  |
| CC1(C)CCC2(C(=O)N3CCOCC3)CCC3(C)C(=CCC4C5(C)CCC(=NO)C(C)(C)C5CCC43C)C2C1 (centres unmarked) [Compound 4] | 1.74 µM | 1.6 µM | 1.8 µM | 7.42 µM | 1.88 | 8.72 µM | 1.60 | 7.29 µM | 1.91 | 8.72 µM | 1.60 | 13.9 µM | 7 to 8 µM |  |
| COC(=O)[C@]12CCC(C)(C)CC1C1=CCC3[C@@]4(C)CC/C(=N\OC(=O)c5cc([N+](=O)[O-])cc([N+](=O)[O-])c5)C(C)(C)C4CC[C@@]3(C)[C@]1(C)CC2 (some centres unmarked) [Compound 5g, 3-(3′,5′-Dinitro)benzoxyiminoolean-12-en-28-oic acid methyl ester] |  |  |  | 5.18 µM | 1.20 | 4.61 µM | 1.35 | 4.82 µM | 1.29 | 4.19 µM | 1.48 | 6.22 µM | 4.19 to 8.98 µM | fold as active as OA (1), MCF-7 [4, 12]: ~3 fold; fold as active as OA (1), KB [5, 12]: 3.2 fold; fold as active as OA (1), A-549 [6, 12]: ~2 fold; fold as active as OA (1), HeLa [7, 12]: ~3 fold; increase in DNA fragmentation ([10]; 0.1 µg/mL): 2.5 fold; increase in DNA fragmentation ([10]; 1.0 µg/mL): 4.2 fold; fold as active as OA (1), HDF ([8]; ratio of IC50 values vs oleanolic acid (1), normal cell line): ~3 fold |
| COC(=O)[C@]12CCC(C)(C)CC1C1=CC(=O)C3[C@@]4(C)CC/C(=N\OC(=O)c5cc([N+](=O)[O-])cc([N+](=O)[O-])c5)C(C)(C)C4CC[C@@]3(C)[C@]1(C)CC2 (some centres unmarked) [Compound 6g, 3-(3′,5′-Dinitro)benzoxyimino-11-oxoolean-12-en-28-oic acid methyl ester] |  |  |  | 6.62 µM | 1.10 | 8.98 µM | 0.81 | 5.39 µM | 1.34 | 6.11 µM | 1.19 | 7.27 µM | 5.39 to 8.98 µM | increase in induction of apoptosis ([11]; 0.1 µg/mL): 1.7 fold; increase in induction of apoptosis ([11]; 1.0 µg/mL): 2.4 fold; increase in induction of apoptosis ([11]; 10 µg/mL): 2.9 fold |
| CC1(C)CC[C@]2(C(=O)N3CCOCC3)CC[C@]3(C)C(=CCC4[C@@]5(C)CC/C(=N\OC(=O)c6ccccc6)C(C)(C)C5CC[C@]43C)C2C1 (some centres unmarked) [Compound 7d, 3-Benzoxyiminoolean-12-en-28-oic acid morpholide] |  |  |  | 41.7 µM | 1.58 | 45.9 µM | 1.44 | 46.8 µM | 1.41 | 45.3 µM | 1.46 | 66.2 µM | 40 to 66 µM |  |
| CC1(C)CC[C@]2(C(=O)N3CCOCC3)CC[C@]3(C)C(=CCC4[C@@]5(C)CC/C(=N\OC(=O)c6cccc([N+](=O)[O-])c6)C(C)(C)C5CC[C@]43C)C2C1 (some centres unmarked) [Compound 7e, 3-(3′-Nitro)benzoxyiminoolean-12-en-28-oic acid morpholide] |  |  |  | 10.2 µM | 2.75 | 13.9 µM | 2.02 | 13.8 µM | 2.03 | 12.1 µM | 2.32 | 28 µM |  | IC50 values for the tested cell lines (range or summary) [9]: comparable to those of OA (1) |
| CC1(C)CC[C@]2(C(=O)N3CCOCC3)CC[C@]3(C)C(=CCC4[C@@]5(C)CC/C(=N\OC(=O)c6ccc([N+](=O)[O-])cc6)C(C)(C)C5CC[C@]43C)C2C1 (some centres unmarked) [Compound 7f, 3-(4′-Nitro)benzoxyiminoolean-12-en-28-oic acid morpholide] |  |  |  | 57.2 µM | 1.49 | 61.5 µM | 1.38 | 62.9 µM | 1.35 | 60 µM | 1.42 | 85.1 µM | 40 to 66 µM |  |
| CC1(C)CC[C@]2(C(=O)N3CCOCC3)CC[C@]3(C)C(=CCC4[C@@]5(C)CC/C(=N\OC(=O)c6cc([N+](=O)[O-])cc([N+](=O)[O-])c6)C(C)(C)C5CC[C@]43C)C2C1 (some centres unmarked) [Compound 7g, 3-(3′,5′-Dinitro)benzoxyiminoolean-12-en-28-oic acid morpholide] |  |  |  | 7.27 µM | 1.26 | 6.01 µM | 1.52 | 6.52 µM | 1.40 | 6.24 µM | 1.47 | 9.16 µM | 4.19 to 8.98 µM | increase in induction of apoptosis ([11]; 0.1 µg/mL): 2.3 fold; increase in induction of apoptosis ([11]; 1.0 µg/mL): 2.6 fold; increase in induction of apoptosis ([11]; 10 µg/mL): 3.8 fold |
